The values that follow come from BindingDB's records for doi:10.1021/jm0704200.

The structures appear in SMILES notation.

A short description of assay [1]: Antagonist activity at human dopamine D3 receptor expressed in HEK293 cells by mitogenesis assay.
Assay [2] can be described thus: Antagonist activity at human dopamine D2 receptor expressed in HEK293 cells by mitogenesis assay.
Assay [3] can be described thus: Agonist activity at human dopamine D2 receptor expressed in HEK293 cells by mitogenesis assay.

Compound `COc1ccccc1N1CCN(CCCCNC(=O)c2ccc3c(c2)Cc2ccccc2-3)CC1` [N-(4-(4-(2-methoxyphenyl)piperazin-1-yl)butyl)-9H-fluorene-2-carboxamide] had an IC50 in assay [1] of 2.2 nM.

Turning to `O=C(NC[C@H]1C[C@@H]1CN1CCN(c2cccc(Cl)c2Cl)CC1)c1ccc(-c2ccccn2)cc1` [N-(2-(4-(2,3-dichlorophenyl)piperazin-1-ylmethyl)-trans-cyclopropylmethyl)-4-pyridin-2-ylbenzamide], the figures for the concentration for half-maximal inhibition (IC50) in assay [2] and in assay [1] were 672 nM and 14.3 nM, respectively. Moreover, the EC50 in assay [3] was determined as 150 nM.

With `COc1ccccc1N1CCN(CCCCNC(=O)c2ccc(-c3ccccn3)cc2)CC1` [N-(4-(4-(2-methoxyphenyl)piperazin-1-yl)butyl)-4-pyridin-2-ylbenzamide], the IC50 in assay [1] is 2.9 nM.

Turning to `O=C(NCCCCN1CCN(c2cccc(Cl)c2Cl)CC1)c1ccc(-c2ccccn2)cc1` [N-{4-[4-(2,3-Dichloro-phenyl)-piperazin-1-yl]-butyl}-4-pyridin-2-yl-benzamide], a half-maximal effect in assay [3] (EC50) was put at 92 nM.
